Assay [1] concerns the target T1, human Hv1 (wild type, dimeric) (Homo sapiens, UniProt Q96D96).
T1 construct: gene HVCN1; full-length human Hv1 homodimer, 273 residues; pGEMHE cRNA in Xenopus laevis oocytes, inside-out patches
T1 sequence (Q96D96 1-273): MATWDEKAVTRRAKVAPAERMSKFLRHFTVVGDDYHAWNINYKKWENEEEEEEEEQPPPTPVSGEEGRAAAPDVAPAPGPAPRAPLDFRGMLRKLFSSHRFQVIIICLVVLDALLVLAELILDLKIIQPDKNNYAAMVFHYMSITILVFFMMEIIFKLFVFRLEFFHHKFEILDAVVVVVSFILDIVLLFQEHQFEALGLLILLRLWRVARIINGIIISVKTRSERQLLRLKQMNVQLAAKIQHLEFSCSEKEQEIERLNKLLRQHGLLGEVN
The experiment in a line: inside-out patch clamp, proton current inhibition, Hill fit. The assay is classed as biochemical. The settings on record: wild-type dimer; open-channel block at +120 mV; pHi = pHo = 6.0; 22 °C; inhibitor on intracellular side.

Assay [2] deals with T2, human Hv1 (wild type, dimeric) D123R (Homo sapiens, UniProt Q96D96, D123R).
T2 construct: gene HVCN1; full-length human Hv1 homodimer, 273 residues; pGEMHE cRNA in Xenopus laevis oocytes, inside-out patches
T2 sequence (Q96D96 1-273 D123R): T1 sequence (Q96D96 1-273) with D123R
The experiment in a line: cell-based. On the set-up: species or system Xenopus oocytes; patch-clamp proton currents, Hill fit of current inhibition, +120 mV, pHi = pHo = 6.0. The settings on record: apparent Kd, Hill fit of current inhibition; read-out: Kd (µM) (±SE). The protocol:
(§1) [2] 2-guanidino-benzothiazole (GBTA), [3] (5-trifluoromethyl-1,3-benzothiazol-2-yl)guanidine, [4] naphtho[1,2-d][1,3]thiazol-2-yl-guanidine, [5] (4-methyl-1,3-thiazol-2-yl)guanidine, [6] […] 1-[4-(4-chlorophenyl)-1,3-thiazol-2-yl]guanidine, [12] 1-[4-(3,4-dimethoxyphenyl)-1,3-thiazol-2-yl]guanidine. […] Hv1 proton currents were measured in inside out patches from Xenopus oocytes in response to depolarizations to +120 mV from a holding potential of −80 mV. Each inhibitor was added to the bath solution at a concentration of 200 μM. pHi = pHo = 6.0. Data are means ± S.E.M. (n ≥ 4). […] (a) Schematics of mutant Hv1 dimers and linked dimers designed to study how intersubunit cysteine crosslinking affects GBTA binding cooperativity. […] Hill coefficients in inset histograms were determined from fits reported in Supplementary Figs 3 and 4.

A further assay has as its target T3, D112E I127C+βME (Homo sapiens, UniProt Q96D96, D112E/I127C).
T3 construct: gene HVCN1; Hv1 homodimer, cysteines reduced by 10 mM βME
T3 sequence (Q96D96 1-273 D112E/I127C): T1 sequence (Q96D96 1-273) with D112E, I127C
Description: cell-based. On the set-up: species or system Xenopus oocytes; patch-clamp proton currents, Hill fit of current inhibition, +120 mV, pHi = pHo = 6.0. The settings on record: read-out: Kd (µM) (±SE). The protocol:
as §1

A further assay addresses T4, I127C+βME (Homo sapiens, UniProt Q96D96, I127C).
T4 construct: gene HVCN1; Hv1 homodimer, cysteines reduced by 10 mM βME
T4 sequence (Q96D96 1-273 I127C): T1 sequence (Q96D96 1-273) with I127C
Description: cell-based. Conditions: read-out: Kd (µM) (±SE). Further details: species or system Xenopus oocytes; patch-clamp proton currents, Hill fit of current inhibition, +120 mV, pHi = pHo = 6.0. As to the method: as §1

Assay [3] addresses T5, human Hv1 (wild type, dimeric) E119A (Homo sapiens, UniProt Q96D96, E119A).
T5 construct: gene HVCN1; full-length human Hv1 homodimer, 273 residues; pGEMHE cRNA in Xenopus laevis oocytes, inside-out patches
T5 sequence (Q96D96 1-273 E119A): T1 sequence (Q96D96 1-273) with E119A
Description: cell-based. On the set-up: species or system Xenopus oocytes; patch-clamp proton currents, Hill fit of current inhibition, +120 mV, pHi = pHo = 6.0. The settings on record: apparent Kd, Hill fit of current inhibition; read-out: Kd (µM) (±SE). The protocol: as §1

The target of assay [4] is T6, human Hv1 (wild type, dimeric) K125A (Homo sapiens, UniProt Q96D96, K125A).
T6 construct: gene HVCN1; full-length human Hv1 homodimer, 273 residues; pGEMHE cRNA in Xenopus laevis oocytes, inside-out patches
T6 sequence (Q96D96 1-273 K125A): T1 sequence (Q96D96 1-273) with K125A
Description: cell-based. Further details: species or system Xenopus oocytes; patch-clamp proton currents, Hill fit of current inhibition, +120 mV, pHi = pHo = 6.0. The settings on record: apparent Kd, Hill fit of current inhibition; read-out: Kd (µM) (±SE). As to the method:
as §1

Assay [5] concerns the target T1, human Hv1 (wild type, dimeric). Description: cell-based. On the set-up: species or system Xenopus oocytes; patch-clamp proton currents, Hill fit of current inhibition, +120 mV, pHi = pHo = 6.0. The settings on record: apparent Kd, Hill fit of current inhibition; read-out: Kd (µM) (±SE). From the text:
Figure 1 Hv1 inhibition by guanidinothiazole derivatives. […] [2] 2-guanidino-benzothiazole (GBTA), [3] (5-trifluoromethyl-1,3-benzothiazol-2-yl)guanidine, [4] naphtho[1,2-d][1,3]thiazol-2-yl-guanidine, [5] (4-methyl-1,3-thiazol-2-yl)guanidine, [6] […] 1-[4-(4-chlorophenyl)-1,3-thiazol-2-yl]guanidine, [12] 1-[4-(3,4-dimethoxyphenyl)-1,3-thiazol-2-yl]guanidine. (b) Inhibition of human Hv1 activity by the indicated guanidinothiazoles and reference compound 2GBI (teal column). Hv1 proton currents were measured in inside out patches from Xenopus oocytes in response to depolarizations to +120 mV from a holding potential of −80 mV. Each inhibitor was added to the bath solution at a concentration of 200 μM. pHi = pHo = 6.0. Data are means ± S.E.M. (n ≥ 4). (c) Concentration dependences of inhibition of human Hv1 by compounds [2], [3], [6], and [11]. […] Apparent dissociation constants (Kd) for the different combinations of channel and inhibitor (Supplementary Table 1) were determined by fitting the concentration dependences of inhibition (average %inhib values) with the Hill equation: Figure 6 Open-state coupling is mediated by direct physical interaction between outer ends of S1 segments in the two subunits. […] Hill coefficients in inset histograms were determined from fits reported in Supplementary Figs 3 and 4. […]

Substitutions are numbered along the chain they refer to.

Regarding `NC(N)=Nc1nc2ccccc2[nH]1` [compound 1, 2-Guanidino-benzimidazole], the “apparent Kd” value in assay [1] was “inhibition of dimeric and monomeric Hv1 by compounds 2GBI and GBTA”.
As to `N=C(N)Nc1nc2ccccc2s1` [compound 2, 2-guanidino-benzothiazole], the Kd in assay [2] is 35.8 ± 2.4 µM; on D112E I127C+βME, 191 ± 11 µM; on I127C+βME, 44.3 ± 2.5 µM; in assay [3], 40.5 ± 2.9 µM; in assay [4], 86 ± 6 µM; in assay [5], 90 ± 7 µM.

Source of the values: paper PMC4568520, “Interrogation of the intersubunit interface of the open Hv1 proton channel with a probe of allosteric coupling” (Scientific Reports, 2015).
